# In article PMC9401600 (Chemmedchem, 2022):
# Target: T1, EHMT1 (GLP) (Homo sapiens, UniProt Q9H9B1)
# T1 construct: purchased
# T1 sequence (Q9H9B1 1-1298): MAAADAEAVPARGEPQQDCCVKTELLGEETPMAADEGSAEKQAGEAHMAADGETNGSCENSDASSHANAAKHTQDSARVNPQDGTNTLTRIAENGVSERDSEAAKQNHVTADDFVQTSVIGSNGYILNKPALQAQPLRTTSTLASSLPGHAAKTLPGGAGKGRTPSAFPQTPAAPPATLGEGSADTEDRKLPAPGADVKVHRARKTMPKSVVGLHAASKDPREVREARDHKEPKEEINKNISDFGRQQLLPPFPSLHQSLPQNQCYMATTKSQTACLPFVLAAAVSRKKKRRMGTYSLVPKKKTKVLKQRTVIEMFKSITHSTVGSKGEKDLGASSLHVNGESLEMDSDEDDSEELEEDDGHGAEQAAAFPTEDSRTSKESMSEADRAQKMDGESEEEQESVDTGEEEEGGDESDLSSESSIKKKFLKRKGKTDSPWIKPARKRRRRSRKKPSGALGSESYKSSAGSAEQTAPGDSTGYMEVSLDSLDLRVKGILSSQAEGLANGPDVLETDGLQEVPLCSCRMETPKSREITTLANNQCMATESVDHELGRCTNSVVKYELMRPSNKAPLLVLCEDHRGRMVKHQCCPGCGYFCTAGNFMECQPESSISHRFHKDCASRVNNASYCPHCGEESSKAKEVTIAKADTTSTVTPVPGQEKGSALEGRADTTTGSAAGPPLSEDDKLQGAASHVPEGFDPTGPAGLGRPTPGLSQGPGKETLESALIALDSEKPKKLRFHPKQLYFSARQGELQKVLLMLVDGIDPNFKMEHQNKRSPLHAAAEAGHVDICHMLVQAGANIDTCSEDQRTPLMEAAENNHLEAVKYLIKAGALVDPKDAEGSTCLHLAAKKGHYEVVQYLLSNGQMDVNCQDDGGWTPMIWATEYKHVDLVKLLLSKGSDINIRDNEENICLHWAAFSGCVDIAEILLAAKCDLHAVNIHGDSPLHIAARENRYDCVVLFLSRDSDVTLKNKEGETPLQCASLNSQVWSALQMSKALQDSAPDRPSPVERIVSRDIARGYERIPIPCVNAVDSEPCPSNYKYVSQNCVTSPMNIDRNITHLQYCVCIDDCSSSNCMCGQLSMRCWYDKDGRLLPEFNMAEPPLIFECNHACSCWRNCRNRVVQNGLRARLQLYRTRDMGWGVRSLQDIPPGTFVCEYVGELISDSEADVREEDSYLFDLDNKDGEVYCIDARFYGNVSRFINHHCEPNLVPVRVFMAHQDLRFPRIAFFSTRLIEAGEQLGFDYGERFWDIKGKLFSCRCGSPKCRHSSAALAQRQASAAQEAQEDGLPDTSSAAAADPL
# Experiment: EHMT1 (GLP) chemiluminescent assay
# Type: biochemical
# Conditions: 0.01 μM to 10 μM
# Experimental: Last, but not least, further characterization of the best candidates was performed assessing their selectivity. Thus, we tested them against EHMT1 (G9a‐like protein, GLP). […] However, they presented a very low percentage, and furthermore this trend was not observed at high doses.
# The assay was carried out using EHMT1 (GLP) Chemiluminescent Assay kit. Compounds were added on a 96‐well plate precoated with histone substrate supplied by kit. 30 μL of master mixture SAM were added and the reaction was initiated adding 20 μL of diluted EHMT1 (GLP) enzyme. The reaction was incubated at room temperature (RT) for 1 hour. The plate was washed three times with 200 μl TBST buffer. 100 μL of Blocking buffer were added to every well and the plate was incubated at RT for 10 minutes with shaking. Supernatant was removed and 100 μl of Primary antibody were added per well. The plate was incubated at RT for 1 hour with slow shaking. The plate was washed three times with 200 μl TBST buffer. 100 μL of Blocking buffer were added to every well and the plate was incubated at RT for 10 minutes with shaking. 100 μl of Secondary HRP‐labeled antibody were added per well and the plate was incubated at RT for 30 minutes with slow shaking. The plate was washed three times with 200 μl TBST buffer. Finally, 100 μl of substrate mix were added and the luminescence was measurement with integration time of 1 second in Perkin Elmer EnSpire Multimode plate reader.
row,SMILES,activity against EHMT1 (in words)
1,Cc1cc(N2CCN(Cc3cc(CN4CCCC4)cs3)CC2)nc(N)n1 [E],did not inhibit EHMT1
2,"CCN1C[C@H](NC(=O)c2cc3cc(Cl)ccc3[nH]2)[C@@H](OC)C1 [F, 5‐chloro‐N‐((3S,4S)‐1‐ethyl‐4‐methoxypyrrolidin‐3‐yl)‐1H‐indole‐2‐carboxamide]",slight activity against EHMT1 at low doses
3,Cc1cc(CNC(=O)C(c2ccc(F)cc2)N2CCCCC2)cnc1C (stereo not drawn) [H],slight activity against EHMT1 at low doses
